Patent publication US20250115640A1, “NEUROPROTECTIVE POLYPEPTIDE COMPOUND AND APPLICATION THEREOF” (Innerse (Zhuhai) Pharmaceutical Co., Ltd., priority 2021, published 2025)
“And” between values parts separate entries of the source, which are not always exact repeats. Equal values may be shown once. “Also recorded” adds a separate entry of the source. Square brackets hold non-standard residues; d marks the D form. Ends that are not written are not given here. Peptide text beside a SMILES is read from it. βAla = NCCC(=O)O

Tests used:
[1] = Body weight of MCAO model animals (Example 6); type: in vivo, Sprague-Dawley (SD) rats; conditions: individual animal
Protocol: • Animals measured: all the surviving experimental animals planned to be measured; • Measurement time: the body weight was measured at least twice during the adaptation period, once 24 hours before surgery for grouping, and once 24 hours after surgery.
Cerebral ischemia-reperfusion is an acute injury model, wherein the weight of experimental animals will drop dramatically after MCAO modeling. Thus, the weight of experimental animals is one of the most basic sensitive parameters to comprehensively reflect the health status of animals. In this experiment, the body weight of all the animals was monitored on the day before the surgery and on the first day after the surgery, and the changes of animal's body weight were observed and recorded.

[2] = General status observation and autopsy findings of MCAO model animals (Example 6); type: in vivo, Sprague-Dawley (SD) rats; conditions: 24 hours after administration; single animals
Protocol: After the adaptation period, animals weighing 240-290 g were selected for dividing into groups for modeling. 24 hours after administration, the animal numbered 2M006 in the S3 group was found dead. […] The data of the above animals was not included in the final statistical analysis. The data of the remaining animals in each group was included in the final statistical analysis. The number of animals included in the final statistical analysis was 8 animals for the model control group, 7 animals for S3 group, 9 animals for the t-PA group and 7 animals for S3+t-PA group.
• Animals observed: all the surviving animals planned to be observed; • Observation time: once a day, and the frequency can be increased if the animal starts to behave abnormal; • What were observed: including but not limited to general manifestations, behavioral status, eye, mouth, nose and mouth area, ear, hair and skin, feces, urine, genital organ and other toxic symptoms. A detailed description was required if there was any abnormality.

[3] = test system: rat model of cerebral ischemia via middle cerebral artery occlusion (MCAO); assay: Rat MCAO cerebral ischemia model, TTC staining, cerebral infarct volume (Example 5); type: in vivo, SD rats; conditions: 3 mg/kg tail vein 1-2 h after ligation, TTC after 22-24 h
Protocol: In order to determine use of the synthetic peptides provided herein in a neurological disease, SD rats were used to prepare a rat model of cerebral ischemia via middle cerebral artery occlusion (MCAO). These rats were injected intravenously 1-2 hours after ischemia, and subjected for a behavioral observation and scoring after 22-24 hours. After the behavioral observation, the rats were euthanized and their brains were removed, cut to sections and stained with TTC for quantitative analysis, and the cerebral infarct volume % was calculated. The experimental SD rats were weighed and anesthetized with chloral hydrate. After anesthesia, the limbs of the rats were fixed, and the rats were placed in a supine position, connected to the small-animal monitor, and monitored for important physiological parameters such as body temperature, blood pressure and heart rate, etc. The rats were shaved at neck and disinfected with 75% alcohol cotton ball. […] The experimental rats were monitored with the small-animal monitor to evaluate if their physiological parameters were normal, and the rats were placed on a small-animal electric blanket to keep their body temperature until they waked up and placed in animal cages. […] The quantitative analysis of photos after TTC staining was performed using Image J software. […]

[4] = test system: rat model of cerebral ischemia via middle cerebral artery occlusion (MCAO); assay: Rat MCAO cerebral ischemia model, behavioral observation and scoring 0-5 (Example 5); type: in vivo, SD rats; conditions: 3 mg/kg tail vein, scoring 22-24 h after ligation, scale 0-5; for Behavioral score, mean value: group mean, 6 rats
Protocol: In order to determine use of the synthetic peptides provided herein in a neurological disease, SD rats were used to prepare a rat model of cerebral ischemia via middle cerebral artery occlusion (MCAO). These rats were injected intravenously 1-2 hours after ischemia, and subjected for a behavioral observation and scoring after 22-24 hours. After the behavioral observation, the rats were euthanized and their brains were removed, cut to sections and stained with TTC for quantitative analysis, and the cerebral infarct volume % was calculated. The experimental SD rats were weighed and anesthetized with chloral hydrate. After anesthesia, the limbs of the rats were fixed, and the rats were placed in a supine position, connected to the small-animal monitor, and monitored for important physiological parameters such as body temperature, blood pressure and heart rate, etc. The rats were shaved at neck and disinfected with 75% alcohol cotton ball. A middle incision of about 2 cm length was then made on the neck of the rats, and the submandibular gland of the rats was bluntly separated while avoiding damage to the gland. Then, the left common carotid artery (CCA) of the rats was bluntly separated, and the internal carotid artery (ICA) and external carotid artery (ECA) were carefully separated upward along the CCA. Any damage to vagus nerves was avoided during the separation. The CCA and ICA were clamped respectively with two artery clamps, and the distal end of the ECA was cut off. A silicone suture emboli was inserted into the ECA “port” to the ICA artery clamp. Then the artery clamp was quickly loosened and the tip of the suture emboli was pushed forward through the artery clamp quickly before clamping the ICA again. […] The experimental rats were monitored with the small-animal monitor to evaluate if their physiological parameters were normal, and the rats were placed on a small-animal electric blanket to keep their body temperature until they waked up and placed in animal cages. […]

[5] = test system: acute ischemic stroke due to large vessel occlusion; conditions: cited from earlier work

Molecule | Body weight D 2, individual animals ([1]; after surgery and administration) | Body weight D 0, individual animals ([1]; before surgery (baseline)) | Death and autopsy findings in animals excluded from statistical analysis [2] | Cerebral infarct volume (TTC quantification), mean value ([3]; group mean, 6 rats) | Cerebral infarct volume (TTC quantification), individual rats No. 1-6 ([3]; individual rat, listed as S1(NA1)) | Behavioral score, mean value [4] | Behavioral score, mean value ([4]; listed as NA1) | Behavioral score, individual rats No. 1-6 ([4]; individual rat) | Serious adverse events ([5]; human, in vivo) | Proportion of patients with an mRS score of 0-2 within 90 days ([5]; single dose of 2.6 mg/kg, maximum 270 mg, 549 patients, placebo 59.2%)
CC[C@H](C)[C@H](NC(=O)[C@H](CO)NC(=O)[C@H](CO)NC(=O)[C@H](CC(C)C)NC(=O)[C@H](CCCCN)NC(=O)[C@H](Cc1c[nH]cn1)NC(=O)CCN)C(=O)N[C@@H](CCC(=O)O)C(=O)N[C@@H](CO)C(=O)N[C@@H](CC(=O)O)C(=O)N[C@H](C(=O)O)C(C)C [Example S3, beta-Ala-His-Lys-Leu-Ser-Ser-Ile-Glu-Ser-Asp-Val] (H-[βAla]HKLSSIESDV-OH) | 232.57 g and 249.67 g and 201.22 g and 228.45 g and 202.45 g and 195.33 g and 217.36 g | 281.72 g and 266.48 g and 253.24 g and 286.91 g and 258.64 g and 247.34 g and 273.73 g | found dead; also recorded: subarachnoid hemorrhage | – | – | – | – | – | – | –
YGRKKRRQRRRKLSSIESDV [Example S1] | – | – | – | 0.157 | 0.187 and 0.218 and 0.153 and 0.145 and 0.107 and 0.134 | 2.0 | 2.0±0.6 | 2 (4×) and 1 and 3 | occurred equally between groups | 61.4%
